Here are results for 1 compound from patent US8249697B2, “Cardiac output monitor with compensation for tissue perfusion” (Alfred E. Mann Institute for Biomedical Engineering at the …, priority 2008, dated 2012).

Data set [1] in a line: disappearance of ICG from blood after high dose intravenous injection (calibration sequence). The format is in vivo, New Zealand White rabbits. To be noted: rabbit, 1 mg ICG intravenously, metabolized by the liver. An excerpt: Experiments have been performed in New Zealand White rabbits (2.8-3.5 Kg) anesthetized with halothane and artificially ventilated with an oxygen-enriched gas mixture (FiO2˜0.4) to achieve a SaO2 above 99% and an end-tidal CO2 between 28 and 32 mm Hg (FIG. 4). The left femoral artery was cannulated for measurement of the arterial blood pressure throughout the procedure. A small catheter was positioned in the left brachial vein to inject the indicator, ICG. Body temperature was maintained with a heat lamp.
Calibration of the transcutaneous fluorescence intensity measured at the level of the animals' ear as a function of ICG concentration in blood was performed as follows. […]
As the liver metabolizes ICG, the blood ICG concentration decreases back to 0 in about 20 minutes. […] The fluorescence intensity of the blood in the cuvette was converted to a measurement of concentration using the known standard curve of fluorescence intensity versus ICG concentration established for the cuvette. ICG fluorescence was measured at the level of the ear at the exact time of the blood sample withdrawal. […]
For the range of concentrations used in these studies, ICG concentration and transcutaneous fluorescence were linearly related. The calibration line passes through the origin of the axes since there is no measured fluorescence when the ICG blood concentration is 0.

The next data set concerns blood proteins. To be noted: stated as typical; cited from earlier work.
The conditions of data set [2]: metabolites are not fluorescent; cited from earlier work.

The structures appear in SMILES notation.

For `CC1(C)C(/C=C/C=C/C=C/C=C2\N(CCCCS(=O)(=O)O)c3ccc4ccccc4c3C2(C)C)=[N+](CCCCS(=O)(=O)[O-])c2ccc3ccccc3c21` [ICG, indocyanine green], the “time for blood ICG concentration to decrease back to 0” value in data set [1] is reported as “about 20 minutes”. In addition, in the data set with blood proteins, the “fraction of ICG injected in the bloodstream that binds to blood proteins” value is listed as “more than 95%”. For the same compound, the “stability in aqueous solution” value in data set [2] is given as “breaks down quickly”.
